Test results: ChEMBL document CHEMBL1212702

System: MCF7
Experiment: Activity at estrogen receptor expressed in human MCF7 cells assessed as increase in receptor-mediated transcription by ERE-luciferase reporter gene assay relative to estradiol
Format: cell-based
Set-up: concentration or dose not given beside the values

`Oc1ccc(-c2c(-c3ccccc3)nn3c(C(F)(F)F)cc(C(F)(F)F)nc23)cc1` and `Cn1c(N)nc2ncc(-c3ccccc3)cc21` cannot be ordered by Activity: 10% for the first, less than 50% for the second.

First: Oc1ccc(-c2n[nH]c3c(O)cccc23)c(O)c1
Second: COC(=O)C1=C(C(=O)OC)[C@@H]2O[C@H]1C(c1ccc(O)cc1)=C2c1ccc(O)cc1
The Activity of the first is lower: less than 50% for the first, 50% for the second.

`CCOC(=O)[C@@H]1[C@H](C(=O)OCC)[C@@H]2O[C@H]1C(c1ccc(O)cc1)=C2c1ccc(O)cc1` was tested, and the Activity was 10%.
